IC50 data for ten molecules are collected here from patent US20180177890A1, “LIGAND-CYTOTOXIC DRUG CONJUGATE, PREPARATION METHOD THEREOF, AND USE THEREOF” (priority 2015, published 2018).

One assay has as its system HepG2 tumor cells. The assay is described as follows: In vitro tumor cell proliferation inhibition test (CCK-8), HepG2. In kind it is cell-based. Conditions: Homo sapiens, HepG2, 76 hours incubation. The method, then:
(§1) The objective of this experiment is to test the in vitro inhibition effect of the formula (D) according to the present invention on the proliferation of HepG2 tumor cells (human hepatocellular carcinoma cells, Chinese Academy of Sciences cell bank, No. #TCHu 72) and A549 tumor cells (human lung adenocarcinoma, Chinese Academy of Sciences cell bank, No. #TCHu150). The cells were treated with different concentrations of the compound in vitro. After 76 hours incubation, the cell proliferation was detected by CCK-8 reagent (Cell Counting Kit-8, Dojindo, No. CK04), and the activity of the compound in vitro was evaluated according to the IC50 value.
(§2) The following is an example of a method for in vitro proliferation inhibition test of HepG2 cells for the purpose of exemplifying the test of the compounds according to the present invention for the proliferation inhibitory activity on tumor cells in vitro. This method is also applicable to, but not limited to, the in vitro proliferation inhibition tests on other tumor cells.
HepG2 cells in logarithmic growth phase were washed with PBS (phosphate buffer, ThermoFisher) once, and added with 2-3 ml trypsin (0.25% trypsin-EDTA (1×), Gibico, Life Technologies) to digest for 2-3 min. Then, 10-15 ml of cell culture medium (DMEM/F12 medium, Invitrogen; 10% (v/v)) was added after the cells were completely digested. The digested HepG2 cells were eluted, and centrifuged at 1000 rpm for 3 min. The supernatant was discarded, and then 10-20 ml of cell culture medium were added to resuspend the cells to prepare a single cell suspension.
The HepG2 single cell suspension was mixed and the cell density was adjusted to 6×10^4 cells/ml with cell culture medium. The density-adjusted cell suspension was mixed uniformly and added to a 96-well cell culture plate at 100 μl/well. The plates were incubated in a 5% CO2 incubator at 37° C. for 18-20 hours.
(§3) The compound was dissolved with DMSO (dimethylsulfoxide, Shanghai Titan Technology Co., Ltd.) to prepare a storage solution having an initial concentration of 10 mM.
(§4) 10 μl of 10 mM compound was added to the wells of the first column of a U-shaped bottom 96-well plate (sample plate 1), and 90 μl of DMSO was added to each compound sample well of the first column, i.e., the stock solution was diluted 10 times as the starting point. Then, 3-fold gradient dilutions were performed, with each compound concentration […]. The diluent was DMSO solution. 60 μl of 100% DMSO was added to 12th column and 20 μl of 1 mM positive drug control was added to 11th column.
(§5) In a new U-shaped bottom 96-well plate (sample plate 2), each sample from the sample plate 1 was diluted 20 times with the complete medium. Then, in another new U-shaped bottom 96-well plate (sample plate 3), each well sample from the sample plate 2 was subjected to a final 10-fold dilution.
(§6) After the cell pre-culture was completed, the 96-well cell culture plate was removed and the supernatant was discarded. Each sample dilution in the 96-well sample plate 3 was successively added to a 96-well cell culture plate at 100 μl/well. Each compound sample was tested in duplicate at each concentration. […] After completion of the loading operation, the 96-well cell culture plate was incubated at 37° C. for about 76 hours in a 5% CO2 incubator.
(§7) The 96-well cell culture plate was taken and CCK-8 was added to each well at […]. The cell culture plate was gently pat and mixed for more than 10 times and incubated at 37° C. for 2 hours in a 5% CO2 incubator.
(§8) The 96-well cell culture plate was taken and placed in a microplate reader (PerkinElmer, VICTOR 3) and the absorbance at 450 nm was measured using the microplate reader.
(§9) Data was analyzed with Microsoft Excel and Graphpad Prism 5.

A further assay relates to A549 tumor cells. Nature of the assay: In vitro tumor cell proliferation inhibition test (CCK-8), A549. Conditions: Homo sapiens, A549, 76 hours incubation. In kind it is cell-based. The method, then:
as §1, §2, §3, §4, §5, §6, §7, §8
In accordance with the above procedure, the inhibition activity of the compound according to the present invention on the proliferation of A549 tumor cells in vitro was tested. The cell culture medium was also DMEM/F12.
as §9

Numbered stars: 1 amine (or outer) side, 2 acyl side, 3 side chain; on linkers, the order of the positions; unused ones are H or OH. Square brackets hold non-standard residues; d marks the D form. Peptide text beside a SMILES is read from it. X1 = CO[C@H]([C@@H](C)C(=O)[*:2])[C@@H]1C[C@@H]2C[C@@H]2N1[*:1]; X3 = CO[C@H]([C@@H](C)C(=O)[*:2])[C@@H]1CC[C@H](C)N1[*:1]; X5 = CO[C@H]([C@@H](C)C(=O)[*:2])[C@@H]1C[C@H](F)CN1[*:1]; X2 = CO[C@H]([C@@H](C)C(=O)[*:2])[C@@H]1CC2(CC2)CN1[*:1]; X4 = C=C1C[C@@H]([C@H](OC)[C@@H](C)C(=O)[*:2])N([*:1])C1; Dolaproine = CO[C@@H]([C@@H]1CCCN1)[C@@H](C)C(=O)O; Dil = CC[C@H](C)[C@H](NC)[C@@H](CC(=O)O)OC; Phe(2-Cl) = N[C@@H](Cc1ccccc1Cl)C(=O)O; Phe(4-F) = N[C@@H](Cc1ccc(F)cc1)C(=O)O; Phe(4-Me) = Cc1ccc(C[C@H](N)C(=O)O)cc1; Phe(2-F) = N[C@@H](Cc1ccccc1F)C(=O)O; NMeV = CN[C@H](C(=O)O)C(C)C

The term IC50 denotes the midpoint of a concentration-inhibition curve. A low value points to greater potency in that assay. On to `CC[C@H](C)[C@@H]([C@@H](CC(=O)N1[C@H]2C[C@H]2C[C@H]1[C@H](OC)[C@@H](C)C(=O)N[C@@H](Cc1ccccc1)C(=O)O)OC)N(C)C(=O)[C@@H](NC(=O)[C@@H](NC)C(C)C)C(C)C` [Compound 1, (S)-2-((2R,3R)-3-((1S,3S,5S)-2-((3R,4S,5S)-4-((S)—N,3-dimethyl-2-((S)-3-methyl-2-(methylamino)butanamido)butanamido)-3-methoxy-5-methylheptanoyl)-2-azabicyclo[3.1.0]hexan-3-yl)-3-methoxy-2-methylpropanamido)-3-phenylpropanoic acid] (H-[NMeV]V[Dil][X1]F-OH), for which the figures for the IC50 with HepG2 tumor cells and in the assay on A549 tumor cells were 8.6 nM and 12.8 nM, respectively.

On to `CC[C@H](C)[C@@H]([C@@H](CC(=O)N1[C@H]2C[C@H]2C[C@H]1[C@H](OC)[C@@H](C)C(=O)N[C@@H](Cc1ccccc1Cl)C(=O)O)OC)N(C)C(=O)[C@@H](NC(=O)[C@@H](NC)C(C)C)C(C)C` [Compound 2, (S)-3-(2-chlorophenyl)-2-((2R,3R)-3-((1S,3S,5S)-2-((3R,4S,5S)-4-((S)—N,3-dimethyl-2-((S)-3-methyl-2-(methylamino)butanamido)butanamido)-3-methoxy-5-methylheptanoyl)-2-azabicyclo[3.1.0]hexan-3-yl)-3-methoxy-2-methylpropanamido)propanoic acid] (H-[NMeV]V[Dil][X1][Phe(2-Cl)]-OH), for which the values for the half-maximal inhibitory concentration (IC50) in the assay with HepG2 tumor cells and with A549 tumor cells were 4.12 nM and 2.33 nM, respectively.

Turning to `CC[C@H](C)[C@@H]([C@@H](CC(=O)N1[C@@H](C)CC[C@H]1[C@H](OC)[C@@H](C)C(=O)N[C@@H](Cc1ccccc1)C(=O)O)OC)N(C)C(=O)[C@@H](NC(=O)[C@@H](NC)C(C)C)C(C)C` [Compound 3, (S)-2-((2R,3R)-3-((2S,5S)-1-((3R,4S,5S)-4-((S)—N,3-dimethyl-2-((S)-3-methyl-2-(methylamino)butanamido)butanamido)-3-methoxy-5-methylheptanoyl)-5-methylpyrrolidin-2-yl)-3-methoxy-2-methylpropanamido)-3-phenylpropanoic acid] (H-[NMeV]V[Dil][X3]F-OH), the 50% inhibitory concentration (IC50) turned out to be 9.33 nM with HepG2 tumor cells and 16.2 nM in the assay with A549 tumor cells.

Turning to `CC[C@H](C)[C@@H]([C@@H](CC(=O)N1[C@H]2C[C@H]2C[C@H]1[C@H](OC)[C@@H](C)C(=O)N[C@@H](Cc1ccccc1F)C(=O)O)OC)N(C)C(=O)[C@@H](NC(=O)[C@@H](NC)C(C)C)C(C)C` [Compound 7, (S)-2-((2R,3R)-3-((1S,3S,5S)-2-((3R,4S,5S)-4-((S)—N,3-dimethyl-2-((S)-3-methyl-2-(methylamino)butanamido)butanamido)-3-methoxy-5-methylheptanoyl)-2-azabicyclo[3.1.0]hexan-3-yl)-3-methoxy-2-methylpropanamido)-3-(2-fluorophenyl)propanoic acid] (H-[NMeV]V[Dil][X1][Phe(2-F)]-OH), the IC50 came to 283 nM in the assay on HepG2 tumor cells and 776 nM in the assay with A549 tumor cells.

Turning to `C=C1C[C@@H]([C@H](OC)[C@@H](C)C(=O)N[C@@H](Cc2ccccc2)C(=O)O)N(C(=O)C[C@@H](OC)[C@H]([C@@H](C)CC)N(C)C(=O)[C@@H](NC(=O)[C@@H](NC)C(C)C)C(C)C)C1` [Compound 9, (S)-2-((2R,3R)-3-((S)-1-((3R,4S,5S)-4-((S)—N,3-dimethyl-2-((S)-3-methyl-2-(methylamino)butanamido)butanamido)-3-methoxy-5-methylheptanoyl)-4-methylenepyrrolidin-2-yl)-3-methoxy-2-methylpropanamido)-3-phenylpropanoic acid] (H-[NMeV]V[Dil][X4]F-OH), the values for the IC50 in the assay on HepG2 tumor cells and in the assay on A549 tumor cells were 55 nM and 114 nM, respectively.

For `CC[C@H](C)[C@@H]([C@@H](CC(=O)N1CC2(CC2)C[C@H]1[C@H](OC)[C@@H](C)C(=O)N[C@@H](Cc1ccccc1F)C(=O)O)OC)N(C)C(=O)[C@@H](NC(=O)[C@@H](NC)C(C)C)C(C)C` [Compound 11, (S)-2-((2R,3R)-3-((S)-5-((3R,4S,5S)-4-((S)—N,3-dimethyl-2-((S)-3-methyl-2-(methylamino)butanamido)butanamido)-3-methoxy-5-methylheptanoyl)-5-azaspiro[2.4]heptan-6-yl)-3-methoxy-2-methylpropanamido)-3-(2-fluorophenyl)propanoic acid] (H-[NMeV]V[Dil][X2][Phe(2-F)]-OH), the concentration for half-maximal inhibition (IC50) was 6.6 nM in the assay on HepG2 tumor cells and 27.2 nM in the assay on A549 tumor cells.

For `CC[C@H](C)[C@@H]([C@@H](CC(=O)N1CC2(CC2)C[C@H]1[C@H](OC)[C@@H](C)C(=O)N[C@@H](Cc1ccccc1)C(=O)O)OC)N(C)C(=O)[C@@H](NC(=O)[C@@H](NC)C(C)C)C(C)C` [Compound 13, (S)-2-((2R,3R)-3-((S)-5-((3R,4S,5S)-4-((S)—N,3-dimethyl-2-((S)-3-methyl-2-(methylamino)butanamido)butanamido)-3-methoxy-5-methylheptanoyl)-5-azaspiro[2.4]heptan-6-yl)-3-methoxy-2-methylpropanamido)-3-phenylpropanoic acid] (H-[NMeV]V[Dil][X2]F-OH), the IC50 was 11.7 nM in the assay with HepG2 tumor cells and 30.2 nM in the assay on A549 tumor cells.

With `CC[C@H](C)[C@@H]([C@@H](CC(=O)N1[C@H]2C[C@H]2C[C@H]1[C@H](OC)[C@@H](C)C(=O)N[C@@H](Cc1ccc(C)cc1)C(=O)O)OC)N(C)C(=O)[C@@H](NC(=O)[C@@H](NC)C(C)C)C(C)C` [Compound 15, (S)-2-((2R,3R)-3-((1S,3S,5S)-2-((3R,4S,5S)-4-((S)—N,3-dimethyl-2-((S)-3-methyl-2-(methylamino)butanamido)butanamido)-3-methoxy-5-methylheptanoyl)-2-azabicyclo[3.1.0]hexan-3-yl)-3-methoxy-2-methylpropanamido)-3-(p-tolyl)propanoic acid] (H-[NMeV]V[Dil][X1][Phe(4-Me)]-OH), the half-maximal inhibitory concentration (IC50) in the assay with HepG2 tumor cells came to 47.5 nM; in the assay on A549 tumor cells it was 75.5 nM.

In the assay with A549 tumor cells, `CC[C@H](C)[C@@H]([C@@H](CC(=O)N1C[C@@H](F)C[C@H]1[C@H](OC)[C@@H](C)C(=O)N[C@@H](Cc1ccccc1)C(=O)O)OC)N(C)C(=O)[C@@H](NC(=O)[C@@H](NC)C(C)C)C(C)C` [Compound 44, (S)-2-((2R,3R)-3-((2S,4S)-1-((3R,4S,5S)-4-((S)—N,3-dimethyl-2-((S)-3-methyl-2-(methylamino)butanamido)butanamido)-3-methoxy-5-methylheptanoyl)-4-fluoropyrrolidin-2-yl)-3-methoxy-2-methylpropanamido)-3-phenylpropanoic acid] (H-[NMeV]V[Dil][X5]F-OH) displayed an IC50 of 179 nM.

In turn, `CC[C@H](C)[C@@H]([C@@H](CC(=O)N1CCC[C@H]1[C@H](OC)[C@@H](C)C(=O)N[C@@H](Cc1ccc(F)cc1)C(=O)O)OC)N(C)C(=O)[C@@H](NC(=O)[C@@H](NC)C(C)C)C(C)C` [Compound 46, (S)-2-((2R,3R)-3-((S)-1-((3R,4S,5S)-4-((S)—N,3-dimethyl-2-((S)-3-methyl-2-(methylamino)butanamido)butanamido)-3-methoxy-5-methylheptanoyl)pyrrolidin-2-yl)-3-methoxy-2-methylpropanamido)-3-(4-fluorophenyl)propanoic acid] (H-[NMeV]V[Dil][Dolaproine][Phe(4-F)]-OH) had a concentration for half-maximal inhibition (IC50) with A549 tumor cells of 106 nM.
